# Source: patent US10597388B2, “Pyridazinone herbicides” (FMC CORPORATION, priority 2014, dated 2020)
# Columns and labels:
# Assay in all cases: Test C greenhouse herbicide test, pre- and postemergence
# Type in all cases: in vivo
# [1] = tested on: lambsquarters (Chenopodium album)
# How it was run: (§1)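 Greenhouse pots; pre-em on seeded loam:sand blend, post-em on 2–18 cm plants (1–4 leaf) in sphagnum peat/vermiculite medium. Formulation: non-phytotoxic solvent + surfactant. Read-out: visual % control (0–100) vs controls at 13–15 d.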
# [2] = tested on: galium (catchweed bedstraw, Galium aparine)
# How it was run: as §1
# [3] = tested on: pigweed (Amaranthus retroflexus)
# How it was run: as §1
# [4] = tested on: crabgrass, large (large crabgrass, Digitaria sanguinalis)
# How it was run: as §1
# [5] = tested on: morningglory (Ipomoea coccinea)
# How it was run: as §1
# [6] = tested on: waterhemp (common waterhemp, Amaranthus rudis)
# How it was run: as §1
# [7] = tested on: foxtail, giant (giant foxtail, Setaria faberii)
# How it was run: as §1
# [8] = tested on: velvetleaf (Abutilon theophrasti)
# How it was run: as §1
# soybean (Glycine max) = tested on: soybean (Glycine max)
# How it was run: as §1
# [9] = tested on: nutsedge, yellow (yellow nutsedge, Cyperus esculentus)
# How it was run: as §1
# corn (Zea mays) = tested on: corn (Zea mays)
# How it was run: as §1
# [10] = tested on: blackgrass (Alopecurus myosuroides)
# How it was run: as §1
# [11] = tested on: ryegrass, Italian (Italian ryegrass, Lolium multiflorum)
# How it was run: as §1
# [12] = tested on: wheat (winter wheat, Triticum aestivum)
# How it was run: as §1
# [13] = tested on: oilseed rape (Brassica napus)
# How it was run: as §1
# [14] = tested on: johnsongrass (Sorghum halepense)
# How it was run: as §1
# [15] = Postemergence, 31 g ai/ha, scale 0 to 100 (0 no effect, 100 complete control)
# [16] = Postemergence, 62 g ai/ha, 0 to 100 scale (0 no effect, 100 complete control)
# [17] = Postemergence, 250 g ai/ha, scale 0 to 100, 0 no effect, 100 complete control, 13 to 15 d
# [18] = Preemergence, 31 g ai/ha, scale 0 to 100, 0 is no effect, 100 is complete control
# [19] = Preemergence, 62 g ai/ha, scale 0 to 100, 0 is no effect, 100 is complete control
# [20] = Preemergence, 125 g ai/ha, scale 0 to 100, 0 is no effect, 100 is complete control
# [21] = Preemergence, 250 g ai/ha, scale 0 to 100 (0 no effect, 100 complete control)
# [22] = postemergence, 125 g ai/ha, scale 0 to 100, 0 no effect, 100 complete control
smiles,measurement,setting,value
Cc1cc(C)c2ccccc2c1-c1c(OS(C)(=O)=O)c(C)nn(C)c1=O [Compound 154],"Plant response rating, Lambsquarters",[1]; [15],90
same,Lambsquarters plant response rating,[1]; [16],85
same,"Plant response rating, Lambsquarters",[1]; [17],95
same,"Plant response rating, Lambsquarters",[1]; [18],15
same,"Plant response rating, Lambsquarters",[1]; [19],60
same,"Plant response rating, Lambsquarters",[1]; [20],85
same,Lambsquarters plant response rating,[1]; [21],95
same,Lambsquarters plant response rating,[1]; [22],90
same,"Plant response rating, Galium",[2]; [15],95
same,Galium plant response rating,[2]; [16],95
same,"Plant response rating, Galium",[2]; [17],95
same,"Plant response rating, Galium",[2]; [18],98
same,"Plant response rating, Galium",[2]; [19],95
same,"Plant response rating, Galium",[2]; [20],98
same,Galium plant response rating,[2]; [21],100
same,Galium plant response rating,[2]; [22],95
same,"Plant response rating, Pigweed",[3]; [15],65
same,Pigweed plant response rating,[3]; [16],85
same,"Plant response rating, Pigweed",[3]; [17],85
same,"Plant response rating, Pigweed",[3]; [18],55
same,"Plant response rating, Pigweed",[3]; [19],95
same,"Plant response rating, Pigweed",[3]; [20],100
same,Pigweed plant response rating,[3]; [21],100
same,Pigweed plant response rating,[3]; [22],90
same,"Plant response rating, Crabgrass, Large",[4]; [15],65
same,"Crabgrass, Large plant response rating",[4]; [16],70
same,"Plant response rating, Crabgrass, Large",[4]; [17],75
same,"Plant response rating, Crabgrass, Large",[4]; [18],70
same,"Plant response rating, Crabgrass, Large",[4]; [19],85
same,"Plant response rating, Crabgrass, Large",[4]; [20],90
same,"Crabgrass, Large plant response rating",[4]; [21],100
same,"Crabgrass, Large plant response rating",[4]; [22],70
same,"Plant response rating, Morningglory",[5]; [15],95
same,Morningglory plant response rating,[5]; [16],98
same,"Plant response rating, Morningglory",[5]; [17],100
same,"Plant response rating, Morningglory",[5]; [18],45
same,"Plant response rating, Morningglory",[5]; [19],85
same,"Plant response rating, Morningglory",[5]; [20],85
same,Morningglory plant response rating,[5]; [21],90
same,Morningglory plant response rating,[5]; [22],98
same,"Plant response rating, Waterhemp",[6]; [15],75
same,Waterhemp plant response rating,[6]; [16],80
same,"Plant response rating, Waterhemp",[6]; [17],70
same,"Plant response rating, Waterhemp",[6]; [18],30
same,"Plant response rating, Waterhemp",[6]; [19],85
same,"Plant response rating, Waterhemp",[6]; [20],95
same,Waterhemp plant response rating,[6]; [21],100
same,Waterhemp plant response rating,[6]; [22],85
same,"Plant response rating, Foxtail, Giant",[7]; [15],85
same,"Foxtail, Giant plant response rating",[7]; [16],90
same,"Plant response rating, Foxtail, Giant",[7]; [17],95
same,"Plant response rating, Foxtail, Giant",[7]; [18],85
same,"Plant response rating, Foxtail, Giant",[7]; [19],95
same,"Plant response rating, Foxtail, Giant",[7]; [20],100
same,"Foxtail, Giant plant response rating",[7]; [21],100
same,"Foxtail, Giant plant response rating",[7]; [22],95
same,"Plant response rating, Velvetleaf",[8]; [15],70
same,Velvetleaf plant response rating,[8]; [16],85
same,"Plant response rating, Velvetleaf",[8]; [17],90
same,"Plant response rating, Velvetleaf",[8]; [18],40
same,"Plant response rating, Velvetleaf",[8]; [19],60
same,"Plant response rating, Velvetleaf",[8]; [20],85
same,Velvetleaf plant response rating,[8]; [21],85
same,Velvetleaf plant response rating,[8]; [22],85
same,"Plant response rating, Soybean",soybean (Glycine max); [15],10
same,Soybean plant response rating,soybean (Glycine max); [16],20
same,"Plant response rating, Soybean",soybean (Glycine max); [17],25
same,"Plant response rating, Soybean",soybean (Glycine max); [18],0
same,"Plant response rating, Soybean",soybean (Glycine max); [19],5
same,"Plant response rating, Soybean",soybean (Glycine max); [20],5
same,Soybean plant response rating,soybean (Glycine max); [21],20
same,Soybean plant response rating,soybean (Glycine max); [22],20
same,"Plant response rating, Nutsedge, Yellow",[9]; [15],70
same,"Nutsedge, Yellow plant response rating",[9]; [16],60
same,"Plant response rating, Nutsedge, Yellow",[9]; [17],80
same,"Plant response rating, Nutsedge, Yellow",[9]; [18],0
same,"Plant response rating, Nutsedge, Yellow",[9]; [19],20
same,"Plant response rating, Nutsedge, Yellow",[9]; [20],70
same,"Nutsedge, Yellow plant response rating",[9]; [21],85
same,"Nutsedge, Yellow plant response rating",[9]; [22],85
same,"Plant response rating, Corn",corn (Zea mays); [15],15
same,Corn plant response rating,corn (Zea mays); [16],5
same,"Plant response rating, Corn",corn (Zea mays); [17],5
same,"Plant response rating, Corn",corn (Zea mays); [18],5
same,"Plant response rating, Corn",corn (Zea mays); [19],5
same,"Plant response rating, Corn",corn (Zea mays); [20],5
same,Corn plant response rating,corn (Zea mays); [21],5
same,Corn plant response rating,corn (Zea mays); [22],5
same,"Plant response rating, Blackgrass",[10]; [15],60
same,Blackgrass plant response rating,[10]; [16],65
same,"Plant response rating, Blackgrass",[10]; [17],85
same,"Plant response rating, Blackgrass",[10]; [18],5
same,"Plant response rating, Blackgrass",[10]; [19],50
same,"Plant response rating, Blackgrass",[10]; [20],85
same,Blackgrass plant response rating,[10]; [21],90
same,Blackgrass plant response rating,[10]; [22],60
same,"Plant response rating, Ryegrass, Italian",[11]; [15],80
same,"Ryegrass, Italian plant response rating",[11]; [16],90
same,"Plant response rating, Ryegrass, Italian",[11]; [17],95
same,"Plant response rating, Ryegrass, Italian",[11]; [18],40
same,"Plant response rating, Ryegrass, Italian",[11]; [19],55
same,"Plant response rating, Ryegrass, Italian",[11]; [20],90
same,"Ryegrass, Italian plant response rating",[11]; [21],90
same,"Ryegrass, Italian plant response rating",[11]; [22],90
same,"Plant response rating, Wheat",[12]; [15],0
same,Wheat plant response rating,[12]; [16],5
same,"Plant response rating, Wheat",[12]; [17],5
same,"Plant response rating, Wheat",[12]; [18],0
same,"Plant response rating, Wheat",[12]; [19],0
same,"Plant response rating, Wheat",[12]; [20],0
same,Wheat plant response rating,[12]; [21],30
same,Wheat plant response rating,[12]; [22],10
same,"Plant response rating, Oilseed Rape",[13]; [15],75
same,Oilseed Rape plant response rating,[13]; [16],90
same,"Plant response rating, Oilseed Rape",[13]; [17],95
same,"Plant response rating, Oilseed Rape",[13]; [18],80
same,"Plant response rating, Oilseed Rape",[13]; [19],85
same,"Plant response rating, Oilseed Rape",[13]; [20],98
same,Oilseed Rape plant response rating,[13]; [21],98
same,Oilseed Rape plant response rating,[13]; [22],98
same,"Plant response rating, Johnsongrass",[14]; [15],5
same,Johnsongrass plant response rating,[14]; [16],5
same,"Plant response rating, Johnsongrass",[14]; [17],20
same,"Plant response rating, Johnsongrass",[14]; [18],10
same,"Plant response rating, Johnsongrass",[14]; [19],45
same,"Plant response rating, Johnsongrass",[14]; [20],50
same,Johnsongrass plant response rating,[14]; [21],75
same,Johnsongrass plant response rating,[14]; [22],20
